The text below walks through data of US20080085915A1, “COMPOUNDS AND METHODS FOR THE TREATMENT OF GASTROINTESTINAL AND CENTRAL NERVOUS SYSTEM DISORDERS” (priority 2006, published 2008).

The target in data set [1] is T1, 5-HT4 receptor (Cavia porcellus, UniProt O70528).
T1 construct: from tissue; host or cells: guinea pig striatum
Briefly: 5-HT4 Receptor Binding - Guinea Pig Striatum. Conditions: radioligand [3H]GR113808 (0.70 nM). The source says:
The 5-HT4 receptor is known to be the major receptor subtype involved in the prokinetic activity of cisapride in the gut.

Data set [2] deals with T2, human IKr (hERG K+ channels) (Homo sapiens, UniProt Q12809).
T2 construct: expressed in transfected cells; host or cells: HEK-293
T2 sequence (Q12809 whole entry): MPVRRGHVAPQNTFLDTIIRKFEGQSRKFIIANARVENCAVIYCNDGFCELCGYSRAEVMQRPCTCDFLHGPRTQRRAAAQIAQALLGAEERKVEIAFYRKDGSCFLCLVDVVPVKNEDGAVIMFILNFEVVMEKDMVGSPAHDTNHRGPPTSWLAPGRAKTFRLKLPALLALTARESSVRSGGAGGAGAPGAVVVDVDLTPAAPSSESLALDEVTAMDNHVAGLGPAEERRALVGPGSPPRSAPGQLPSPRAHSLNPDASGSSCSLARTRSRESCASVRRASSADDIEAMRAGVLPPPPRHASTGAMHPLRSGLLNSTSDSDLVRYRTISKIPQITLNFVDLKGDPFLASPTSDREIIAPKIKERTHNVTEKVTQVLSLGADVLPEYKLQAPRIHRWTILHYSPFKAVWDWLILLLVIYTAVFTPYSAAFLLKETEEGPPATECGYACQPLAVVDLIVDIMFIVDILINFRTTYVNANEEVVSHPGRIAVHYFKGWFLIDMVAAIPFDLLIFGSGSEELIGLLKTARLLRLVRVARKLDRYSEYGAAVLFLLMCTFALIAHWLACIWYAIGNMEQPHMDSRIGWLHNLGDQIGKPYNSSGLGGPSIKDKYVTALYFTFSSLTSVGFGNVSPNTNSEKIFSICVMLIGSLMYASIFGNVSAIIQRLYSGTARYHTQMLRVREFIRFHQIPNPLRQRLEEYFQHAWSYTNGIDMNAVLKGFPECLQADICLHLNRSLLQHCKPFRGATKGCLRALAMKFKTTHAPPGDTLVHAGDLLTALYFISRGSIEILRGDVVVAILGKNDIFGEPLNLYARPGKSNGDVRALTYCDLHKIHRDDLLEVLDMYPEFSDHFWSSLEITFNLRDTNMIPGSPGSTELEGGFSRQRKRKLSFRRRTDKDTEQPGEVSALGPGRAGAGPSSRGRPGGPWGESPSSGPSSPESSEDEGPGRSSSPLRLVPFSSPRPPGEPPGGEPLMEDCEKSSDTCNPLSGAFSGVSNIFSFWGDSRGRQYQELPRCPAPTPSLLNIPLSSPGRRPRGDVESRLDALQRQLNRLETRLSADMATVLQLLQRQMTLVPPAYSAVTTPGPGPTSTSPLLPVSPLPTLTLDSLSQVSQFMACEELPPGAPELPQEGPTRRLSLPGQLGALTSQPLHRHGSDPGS
As to the kind of experiment: Inhibition of IKr activity, whole cell patch-clamp in HEK-293 cells expressing hERG K+ channels. It counts as cell-based. The following applies: data normalized to % control tail IKr. As for the experimental part:
The rapidly activating delayed rectifier potassium (K+) current in humans (human IKr) is a K+ channel that is encoded by the human-ether-a-go-go-related gene (hERG). Cisapride is known to produce QT interval prolongations via a blockade of IKr, and it was therefore of interest to determine whether compounds of the invention have important inhibitory effects on human IKr. The test system was mammalian HEK-293 cells expressing the hERG K+ channels, in which the potassium current was measured by whole cell patch-clamp technique.

The conditions of data set [3]: between July 1993 and December 1999; cited from earlier work.
The conditions of data set [4]: in vivo; cited from earlier work.

T1 sequence (O70528 whole entry): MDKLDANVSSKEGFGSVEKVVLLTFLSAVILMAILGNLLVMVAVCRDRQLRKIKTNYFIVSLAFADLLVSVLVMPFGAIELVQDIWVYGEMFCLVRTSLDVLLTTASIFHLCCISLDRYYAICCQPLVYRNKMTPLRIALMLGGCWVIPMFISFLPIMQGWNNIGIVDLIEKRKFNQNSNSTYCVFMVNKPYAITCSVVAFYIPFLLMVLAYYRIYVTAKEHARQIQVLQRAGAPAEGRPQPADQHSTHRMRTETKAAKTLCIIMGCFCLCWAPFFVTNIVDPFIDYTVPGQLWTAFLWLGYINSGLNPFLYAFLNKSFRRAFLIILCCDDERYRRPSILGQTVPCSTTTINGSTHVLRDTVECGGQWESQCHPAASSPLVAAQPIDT

The term Ki denotes the equilibrium dissociation constant of an inhibitor or competing ligand from its target. A lower Ki goes with higher affinity. Usually IC50 stands for the concentration that inhibits the measured activity by half. A higher IC50 goes with lower potency. In the case of `COc1cc(N)c(Cl)cc1C(=O)N[C@@H]1CCN(CCN(C)Cc2ccc(C(=O)OCCN3CCCC3)cc2)C[C@@H]1OC` [Compound 10, 2-(pyrrolidin-1-yl)ethyl 4-(((2-((3S,4R)-4-(4-amino-5-chloro-2-methoxybenzamido)-3-methoxypiperidin-1-yl)ethyl)(methyl)amino)methyl)benzoate], the Ki in data set [1] is less than 50 nM. Moreover, the IC50 in data set [2] was greater than 25000 nM.

In turn, `COc1cc(N)c(Cl)cc1C(=O)N[C@@H]1CCN(CCN(C)Cc2ccc(C(=O)OC3CCN(C)CC3)cc2)C[C@@H]1OC` [Compound 11, 1-methylpiperidin-4-yl 4-(((2-((3S,4R)-4-(4-amino-5-chloro-2-methoxybenzamido)-3-methoxypiperidin-1-yl)ethyl)(methyl)amino)methyl)benzoate] showed a Ki in data set [1] of less than 50 nM.

`COc1cc(N)c(Cl)cc1C(=O)N[C@@H]1CCN(CCN(C)Cc2ccc(C(=O)OCCN3CCOCC3)cc2)C[C@@H]1OC` [Compound 12, 2-morpholinoethyl 4-(((2-((3S,4R)-4-(4-amino-5-chloro-2-methoxybenzamido)-3-methoxypiperidin-1-yl)ethyl)(methyl)amino)methyl)benzoate] came in with a Ki in data set [1] of 50 to 500 nM.

`COc1cc(N)c(Cl)cc1C(=O)N[C@@H]1CCN(CCNCc2ccc(C(=O)O)cc2)C[C@@H]1OC` [Compound 23, 4-((2-((3S,4R)-4-(4-amino-5-chloro-2-methoxybenzamido)-3-methoxypiperidin-1-yl)ethylamino)methyl)benzoic acid] returned a Ki in data set [1] greater than 500 nM.

As for `COc1cc(N)c(Cl)cc1C(=O)N[C@@H]1CCN(CCNCc2ccc(C(=O)OCCCO)cc2)C[C@@H]1OC` [Compound 24, 3-hydroxypropyl 4-((2-((3S,4R)-4-(4-amino-5-chloro-2-methoxybenzamido)-3-methoxypiperidin-1-yl)ethylamino)methyl)benzoate], the Ki in data set [1] fell in the range of 50 to 500 nM.

The compound `COc1cc(N)c(Cl)cc1C(=O)N[C@@H]1CCN(CCNCc2ccc(C(=O)OC3CCNCC3)cc2)C[C@@H]1OC` [Compound 25, piperidin-4-yl 4-((2-((3S,4R)-4-(4-amino-5-chloro-2-methoxybenzamido)-3-methoxypiperidin-1-yl)ethylamino)methyl)benzoate] gave a Ki in data set [1] of less than 50 nM. In addition, the IC50 in data set [2] was greater than 25000 nM.

`COc1cc(N)c(Cl)cc1C(=O)N[C@@H]1CCN(CCNC(=O)c2ccc(C(=O)O)cc2)C[C@@H]1OC` [Compound 33, 4-(2-((3S,4R)-4-(4-amino-5-chloro-2-methoxybenzamido)-3-methoxypiperidin-1-yl)ethylcarbamoyl)benzoic acid]: the Ki in data set [1] was greater than 500 nM. The compound further registered an IC50 in data set [2] greater than 25000 nM.

With `COc1cc(N)c(Cl)cc1C(=O)N[C@@H]1CCN(CCNC(=O)c2ccc(C(=O)OC3CCNCC3)cc2)C[C@@H]1OC` [Compound 34, piperidin-4-yl 4-(2-((3S,4R)-4-(4-amino-5-chloro-2-methoxybenzamido)-3-methoxypiperidin-1-yl)ethylcarbamoyl)benzoate], in data set [1], the Ki was less than 50 nM.

Consider `COc1cc(N)c(Cl)cc1C(=O)N[C@@H]1CCN(CC(=O)Nc2ccc(CC(=O)O)cc2)C[C@@H]1OC` [Compound 45, 2-(4-(2-((3S,4R)-4-(4-amino-5-chloro-2-methoxybenzamido)-3-methoxypiperidin-1-yl)acetamido)phenyl)acetic acid], for which the inhibitory constant (Ki) in data set [1] is greater than 500 nM. The compound further displayed a half-inhibitory concentration (IC50) in data set [2] greater than 25000 nM.

Consider `CCOC(=O)Cc1ccc(NC(=O)CN2CC[C@@H](NC(=O)c3cc(Cl)c(N)cc3OC)[C@@H](OC)C2)cc1` [Compound 46, ethyl 2-(4-(2-((3S,4R)-4-(4-amino-5-chloro-2-methoxybenzamido)-3-methoxypiperidin-1-yl)acetamido)phenyl)acetate], for which the Ki in data set [1] was less than 50 nM.

For the compound `COc1cc(N)c(Cl)cc1C(=O)N[C@@H]1CCN(CC(=O)Nc2ccc(CC(=O)OC3CCN(C)CC3)cc2)C[C@@H]1OC` [Compound 47, 1-methylpiperidin-4-yl 2-(4-(2-((3S,4R)-4-(4-amino-5-chloro-2-methoxybenzamido)-3-methoxypiperidin-1-yl)acetamido)phenyl)acetate], the Ki in data set [1] is less than 50 nM. Also, the IC50 in data set [2] is greater than 25000 nM.

In data set [1], `COc1cc(N)c(Cl)cc1C(=O)N[C@@H]1CCN(CC(=O)Nc2ccc(CC(=O)OCCCO)cc2)C[C@@H]1OC` [Compound 48, 3-hydroxypropyl 2-(4-(2-((3S,4R)-4-(4-amino-5-chloro-2-methoxybenzamido)-3-methoxypiperidin-1-yl)acetamido)phenyl)acetate] showed an inhibition constant Ki of less than 50 nM. Further, the IC50 in data set [2] is 10000 to 25000 nM.

Turning to `COc1cc(N)c(Cl)cc1C(=O)N[C@@H]1CCN(CC(=O)Nc2ccc(CC(=O)OC3CN4CCC3CC4)cc2)C[C@@H]1OC` (stereo partly drawn) [Compound 49, quinuclidin-3-yl 2-(4-(2-((3S,4R)-4-(4-amino-5-chloro-2-methoxybenzamido)-3-methoxypiperidin-1-yl)acetamido)phenyl)acetate], the Ki in data set [1] is less than 50 nM.

The compound `COc1cc(N)c(Cl)cc1C(=O)N[C@@H]1CCN(CC(=O)Nc2ccc(O)cc2)C[C@@H]1OC` [Compound 59, 4-amino-5-chloro-N-((3S,4R)-1-(2-(4-hydroxyphenylamino)-2-oxoethyl)-3-methoxypiperidin-4-yl)-2-methoxybenzamide] registered a Ki in data set [1] of less than 50 nM.

As for `COc1cc(N)c(Cl)cc1C(=O)N[C@@H]1CCN(CC(=O)Nc2ccc(OC(C)=O)cc2)C[C@@H]1OC` [Compound 60, 4-(2-((3S,4R)-4-(4-amino-5-chloro-2-methoxybenzamido)-3-methoxypiperidin-1-yl)acetamido)phenyl acetate], the Ki in data set [1] was less than 50 nM.

With `COc1cc(N)c(Cl)cc1C(=O)N[C@@H]1CCN(CCCc2ccc(C(=O)O)cc2)C[C@@H]1OC` [Compound 66, 4-(3-((3S,4R)-4-(4-amino-5-chloro-2-methoxybenzamido)-3-methoxypiperidin-1-yl)propyl)benzoic acid], the Ki in data set [1] was greater than 500 nM. Also, in data set [2], the IC50 is greater than 25000 nM.

For `COc1cc(N)c(Cl)cc1C(=O)N[C@@H]1CCN(CCCc2ccc(C(=O)OCCN3CCOCC3)cc2)C[C@@H]1OC` [Compound 67, 2-morpholinoethyl 4-(3-((3S,4R)-4-(4-amino-5-chloro-2-methoxybenzamido)-3-methoxypiperidin-1-yl)propyl)benzoate], the Ki in data set [1] is less than 50 nM.

In turn, `COc1cc(N)c(Cl)cc1C(=O)N[C@@H]1CCN(CCCc2ccc(C(=O)OCCN3CCCC3)cc2)C[C@@H]1OC` [Compound 68, 2-(pyrrolidin-1-yl)ethyl 4-(3-((3S,4R)-4-(4-amino-5-chloro-2-methoxybenzamido)-3-methoxypiperidin-1-yl)propyl)benzoate] yielded a Ki in data set [1] of less than 50 nM.

Compound `COc1cc(N)c(Cl)cc1C(=O)N[C@@H]1CCN(CCCc2ccc(C(=O)OC3CCN(C)CC3)cc2)C[C@@H]1OC` [Compound 69, 1-methylpiperidin-4-yl 4-(3-((3S,4R)-4-(4-amino-5-chloro-2-methoxybenzamido)-3-methoxypiperidin-1-yl)propyl)benzoate] showed a Ki in data set [1] of less than 50 nM.

For the compound `COc1cc(N)c(Cl)cc1C(=O)N[C@@H]1CCN(CC(=O)Nc2ccc(C(=O)OCCO)cc2)C[C@@H]1OC` [Compound 93, 2-hydroxyethyl 4-(2-((3S,4R)-4-(4-amino-5-chloro-2-methoxybenzamido)-3-methoxypiperidin-1-yl)acetamido)benzoate], the inhibition constant Ki in data set [1] is less than 50 nM. In data set [2], this compound returned an IC50 greater than 25000 nM.

In data set [1], `COc1cc(N)c(Cl)cc1C(=O)N[C@@H]1CCN(CC(=O)Nc2ccc(C(=O)OCC(N)=O)cc2)C[C@@H]1OC` [Compound 94, 2-amino-2-oxoethyl 4-(2-((3S,4R)-4-(4-amino-5-chloro-2-methoxybenzamido)-3-methoxypiperidin-1-yl)acetamido)benzoate] yielded a Ki of less than 50 nM. In data set [2], this compound returned an IC50 of 5000 to 10000 nM.

In data set [1], `COc1cc(N)c(Cl)cc1C(=O)N[C@@H]1CCN(CC(=O)Nc2ccc(C(=O)OCCN3CCNCC3)cc2)C[C@@H]1OC` [Compound 95, 2-(piperazin-1-yl)ethyl 4-(2-((3S,4R)-4-(4-amino-5-chloro-2-methoxybenzamido)-3-methoxypiperidin-1-yl)acetamido)benzoate] gave a Ki of less than 50 nM.

For the compound `COc1cc(N)c(Cl)cc1C(=O)NC1CCN(CCCOc2ccc(F)cc2)CC1OC` (stereo not shown) [cisapride], in data set [3], the deaths reported is recorded as 80 and the “serious cardiac arrhythmias reportedly associated” value is given as “at least 341”. The “part of dose metabolized by oxidative N-dealkylation or aromatic hydroxylation” value in data set [4] is “More than 90%”.
